Laboratory results: US20160244437A1, “SUBSTITUTED PHENYLALANINE DERIVATIVES” (BAYER PHARMA AKTIENGESELLSCHAFT, priority 2013, published 2016)
Structures can show the parent of a compound that is named as a salt.

The compounds below were run against T1, human factor XIa (Homo sapiens, UniProt P03951) (assay: Measurement of FXIa inhibition (fluorogenic peptide substrate Boc-Glu(OBzl)-Ala-Arg-AMC)). Conditions: factor XIa from Kordia 0.45 nM, 15 min pre-incubation, 30 min at 22° C., fluorescence.
T1 construct: purchased Kordia
Format: biochemical
Procedure: The factor XIa inhibition of the substances according to the invention is determined using a biochemical test system which utilizes the reaction of a peptidic factor XIa substrate to determine the enzymatic activity of human factor XIa. Here, factor XIa cleaves from the peptic factor XIa substrate the C-terminal aminomethylcoumarin (AMC), the fluorescence of which is measured. The determinations are carried out in microtitre plates.
Test substances are dissolved in dimethyl sulphoxide and serially diluted in dimethyl sulphoxide (3000 μM to 0.0078 μM; resulting final concentrations in the test: 50 μM to 0.00013 μM). In each case 1 μl of the diluted substance solutions is placed into the wells of white microtitre plates from Greiner (384 wells). Subsequently, the following are added successively: 20 μl of assay buffer (50 mmol/l Tris buffer pH 7.4; 100 mmol/l sodium chloride; 5 mmol/l calcium chloride; 0.1% bovine serum albumin) and 20 μl of factor XIa from Kordia (0.45 nM in assay buffer). After 15 min of incubation, the enzyme reaction is started by addition of 20 μl of the factor XIa substrate Boc-Glu(OBzl)-Ala-Arg-AMC dissolved in assay buffer (10 μM in assay buffer) from Bachem, the mixture is incubated at room temperature (22° C.) for 30 min and fluorescence is then measured (excitation: 360 nm, emission: 460 nm). The measured emissions of the test batches with test substance are compared to those of control batches without test substance (only dimethyl sulphoxide instead of test substance in dimethyl sulphoxide), and IC50 values are calculated from the concentration/activity relationships.

T1 sequence (P03951 388-625 limits assumed): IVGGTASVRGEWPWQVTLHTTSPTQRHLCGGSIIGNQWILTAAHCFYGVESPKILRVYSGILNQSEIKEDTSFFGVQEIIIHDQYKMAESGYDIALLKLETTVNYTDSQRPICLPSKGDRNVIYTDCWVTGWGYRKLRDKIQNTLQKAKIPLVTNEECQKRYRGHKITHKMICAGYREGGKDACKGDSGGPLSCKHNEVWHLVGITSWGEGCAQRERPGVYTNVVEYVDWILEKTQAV
T1 sequence (P03951 19-387 partner limits assumed): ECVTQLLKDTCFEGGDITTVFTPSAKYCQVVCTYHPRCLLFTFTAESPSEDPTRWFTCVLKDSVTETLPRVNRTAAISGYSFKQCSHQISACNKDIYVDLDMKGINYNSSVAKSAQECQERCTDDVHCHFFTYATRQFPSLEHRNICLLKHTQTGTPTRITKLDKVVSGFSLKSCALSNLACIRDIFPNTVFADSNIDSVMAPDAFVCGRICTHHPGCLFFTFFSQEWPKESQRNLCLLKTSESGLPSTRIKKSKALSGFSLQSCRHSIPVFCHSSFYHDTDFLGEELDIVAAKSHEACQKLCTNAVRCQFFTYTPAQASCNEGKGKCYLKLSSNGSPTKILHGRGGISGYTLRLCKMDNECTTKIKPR

Row | SMILES | IC50
1 | CN1CCN(c2cc(-c3cccc(C[C@H](NC(=O)[C@H]4CC[C@H](CN)CC4)C(=O)Nc4ccc5[nH]c(=O)[nH]c5c4)c3)ccn2)CC1 [Example 76, N-alpha-{[trans-4-(Aminomethyl)cyclohexyl]carbonyl}-3-[2-(4-methylpiperazin-1-yl)pyridin-4-yl]-N-(2-oxo-2,3-dihydro-1H-benzimidazol-5-yl)-L-phenylalaninamide hydrochloride] | 59 nM
2 | CN1CCN(c2ncc(-c3cccc(C[C@H](NC(=O)[C@H]4CC[C@H](CN)CC4)C(=O)Nc4ccc(-c5nnn[nH]5)cc4)c3)cn2)CC1 [Example 69, N-alpha-{[trans-4-(Aminomethyl)cyclohexyl]carbonyl}-3-[2-(4-methylpiperazin-1-yl)pyrimidin-5-yl]-N-[4-(1H-tetrazol-5-yl)phenyl]-L-phenylalaninamide hydrochloride] | 4.9 nM
3 | Cc1cc(C(=O)N[C@@H]2CCCNC2=O)ccc1-c1cccc(C[C@H](NC(=O)[C@H]2CC[C@H](CN)CC2)C(=O)Nc2ccc3nc(C(F)(F)C(F)(F)F)[nH]c3c2)c1 [Example 63, 3′-[(2S)-2-({[trans-4-(Aminomethyl)cyclohexyl]carbonyl}amino)-3-oxo-3-{[2-(pentafluoroethyl)-1H-benzimidazol-6-yl]amino}propyl]-2-methyl-N-[(3R)-2-oxopiperidin-3-yl]biphenyl-4-carboxamide hydrochloride] | 52 nM
4 | NC[C@H]1CC[C@H](C(=O)N[C@@H](Cc2cccc(-c3ccnc(N4CCOCC4)c3)c2)C(=O)Nc2ccc(-c3nn[nH]n3)cc2)CC1 [Example 85, N-alpha-{[trans-4-(Aminomethyl)cyclohexyl]carbonyl}-3-[2-(morpholin-4-yl)pyridin-4-yl]-N-[4-(2H-tetrazol-5-yl)phenyl]-L-phenylalaninamide hydrochloride] | 2.4 nM
5 | NC[C@H]1CC[C@H](C(=O)N[C@@H](Cc2cccc(-c3cnc(N4CCOCC4)nc3)c2)C(=O)Nc2ccc(-c3n[nH]c(=O)[nH]3)cc2)CC1 [Example 88, N-alpha-{[trans-4-(Aminomethyl)cyclohexyl]carbonyl}-3-[2-(morpholin-4-yl)pyrimidin-5-yl]-N-[4-(5-oxo-4,5-dihydro-1H-1,2,4-triazol-3-yl)phenyl]-L-phenylalaninamide hydrochloride] | 29 nM
6 | Cc1ccc(S(=O)(=O)N(C)C)cc1-c1cccc(C[C@H](NC(=O)[C@H]2CC[C@H](CN)CC2)C(=O)Nc2ccc(-c3noc(=O)[nH]3)cc2)c1 [Example 23, trans-4-(Aminomethyl)-N-[(2S)-3-[5′-(dimethylsulphamoyl)-2′-methylbiphenyl-3-yl]-1-oxo-1-{[4-(5-oxo-4,5-dihydro-1,2,4-oxadiazol-3-yl)phenyl]amino}propan-2-yl]cyclohexanecarboxamide hydrochloride] | 3.6 nM
7 | Cc1cnccc1-c1cccc(C[C@H](NC(=O)[C@H]2CC[C@H](CN)CC2)C(=O)Nc2ccc3[nH]c(=O)[nH]c3c2)c1 [Example 75, N-alpha-{[trans-4-(Aminomethyl)cyclohexyl]carbonyl}-3-(3-methylpyridin-4-yl)-N-(2-oxo-2,3-dihydro-1H-benzimidazol-5-yl)-L-phenylalaninamide hydrochloride] | 35 nM
8 | NC[C@H]1CC[C@H](C(=O)N[C@@H](Cc2cccc(-c3cnc(N4CCOCC4)nc3)c2)C(=O)Nc2ccc(-c3nnn[nH]3)cc2)CC1 [Example 74, N-alpha-{[trans-4-(Aminomethyl)cyclohexyl]carbonyl}-3-[2-(morpholin-4-yl)pyrimidin-5-yl]-N-[4-(1H-tetrazol-5-yl)phenyl]-L-phenylalaninamide hydrochloride] | 2.1 nM
9 | CCN(CC)CCNC(=O)c1ccc(-c2cccc(C[C@H](NC(=O)[C@H]3CC[C@H](CN)CC3)C(=O)Nc3ccc4cn[nH]c4c3)c2)cc1 [Example 53, 3′-[(2S)-2-({[trans-4-(Aminomethyl)cyclohexyl]carbonyl}amino)-3-(1H-indazol-6-ylamino)-3-oxopropyl]-N-[2-(diethylamino)ethyl]biphenyl-4-carboxamide hydrochloride] | 17 nM
10 | NC[C@H]1CC[C@H](C(=O)N[C@@H](Cc2cccc(-c3ccc(C(=O)N4CCOCC4)cc3)c2)C(=O)Nc2ccc(-c3nnc(Cl)[nH]3)cc2)CC1 [Example 26, trans-4-(Aminomethyl)-N-{(2S)-1-{[4-(3-chloro-4H-1,2,4-triazol-5-yl)phenyl]amino}-3-[4′-(morpholin-4-ylcarbonyl)biphenyl-3-yl]-1-oxopropan-2-yl}cyclohexanecarboxamide hydrochloride] | 4.5 nM
11 | NCCNC(=O)c1ccc(-c2cccc(C[C@H](NC(=O)[C@H]3CC[C@H](CN)CC3)C(=O)Nc3ccc4cn[nH]c4c3)c2)cc1 [Example 50, N-(2-Aminoethyl)-3′-[(2S)-2-({[trans-4-(aminomethyl)cyclohexyl]carbonyl}amino)-3-(1H-indazol-6-ylamino)-3-oxopropyl]biphenyl-4-carboxamide hydrochloride] | 55 nM
12 | COCc1nnc(-c2ccc(NC(=O)[C@H](Cc3cccc(-c4ccccc4C(C)C)c3)NC(=O)[C@H]3CC[C@H](CN)CC3)cc2)[nH]1 [Example 104, trans-4-(Aminomethyl)-N-[(2S)-3-(2′-isopropylbiphenyl-3-yl)-1-({4-[3-(methoxymethyl)-4H-1,2,4-triazol-5-yl]phenyl}amino)-1-oxopropan-2-yl]cyclohexanecarboxamide hydrochloride] | 8.6 nM

Results, then the compound that gave them:

Row | IC50 | SMILES
13 | 7.3 nM | CN1CCN(c2ccc(-c3cccc(C[C@H](NC(=O)[C@H]4CC[C@H](CN)CC4)C(=O)Nc4ccc(-c5nnn[nH]5)cc4)c3)cn2)CC1 [Example 77, N-alpha-{[trans-4-(Aminomethyl)cyclohexyl]carbonyl}-3-[6-(4-methylpiperazin-1-yl)pyridin-3-yl]-N-[4-(1H-tetrazol-5-yl)phenyl]-L-phenylalaninamide hydrochloride]
14 | 3.1 nM | NC[C@H]1CC[C@H](C(=O)N[C@@H](Cc2cccc(-c3ccccc3C(F)(F)F)c2)C(=O)Nc2ccc(-c3nnn[nH]3)cc2)CC1 [Example 84, trans-4-(Aminomethyl)-N-{(25)-1-oxo-1-{[4-(1H-tetrazol-5-yl)phenyl]amino}-3-[2′-(trifluoromethyl)biphenyl-3-yl]propan-2-yl}cyclohexanecarboxamide hydrochloride]
15 | 0.9 nM | Cc1ccc(S(=O)(=O)N2CCOCC2)cc1-c1cccc(C[C@H](NC(=O)[C@H]2CC[C@H](CN)CC2)C(=O)Nc2ccc(-c3nnn[nH]3)cc2)c1 [Example 3, trans-4-(Aminomethyl)-N-[(2S)-3-[2′-methyl-5′-(morpholin-4-ylsulphonyl)biphenyl-3-yl]-1-oxo-1-{[4-(1H-tetrazol-5-yl)phenyl]amino}propan-2-yl]cyclohexanecarboxamide hydrochloride]
16 | 12 nM | CN1CCN(c2cc(-c3cccc(C[C@H](NC(=O)[C@H]4CC[C@H](CN)CC4)C(=O)Nc4ccc(-c5nnn[nH]5)cc4)c3)ccn2)CC1 [Example 65, N-alpha-{[trans-4-(Aminomethyl)cyclohexyl]carbonyl}-3-[2-(4-methylpiperazin-1-yl)pyridin-4-yl]-N-[4-(1H-tetrazol-5-yl)phenyl]-L-phenylalaninamide hydrochloride]
17 | 7.7 nM | Cc1cc(C(=O)NC2CCNCC2)ccc1-c1cccc(C[C@H](NC(=O)[C@H]2CC[C@H](CN)CC2)C(=O)Nc2ccc(-c3nnn[nH]3)cc2)c1 [Example 15, 3′-[(2S)-2-({[trans-4-(Aminomethyl)cyclohexyl]carbonyl}amino)-3-oxo-3-{[4-(1H-tetrazol-5-yl)phenyl]amino}propyl]-2-methyl-N-(piperidin-4-yl)biphenyl-4-carboxamide hydrochloride]
18 | 4.4 nM | Cc1cc(C(=O)NCCOCCOCCO)ccc1-c1cccc(C[C@H](NC(=O)[C@H]2CC[C@H](CN)CC2)C(=O)Nc2ccc(-c3nnn[nH]3)cc2)c1 [Example 25, 3′-[(2S)-2-({[trans-4-(Aminomethyl)cyclohexyl]carbonyl}amino)-3-oxo-3-{[4-(1H-tetrazol-5-yl)phenyl]amino}propyl]-N-{2-[2-(2-hydroxyethoxy)ethoxy]ethyl}-2-methylbiphenyl-4-carboxamide hydrochloride]
19 | 10 nM | Cc1ccc(C[C@H](NC(=O)C2CCC(CN)CC2)C(=O)Nc2ccc(-c3nnn[nH]3)cc2)cc1-c1cccc(C(=O)NC2C3CNCC32)c1 (stereo partly drawn) [Example 35, 5′-[(2S)-2-({[trans-4-(Aminomethyl)cyclohexyl]carbonyl}amino)-3-oxo-3-{[4-(1H-tetrazol-5-yl)phenyl]amino}propyl]-N-(3-azabicyclo[3.1.0]hex-6-yl)-2′-methylbiphenyl-3-carboxamide hydrochloride]
20 | 3.1 nM | CN(C)c1ccc(-c2cccc(C[C@H](NC(=O)[C@H]3CC[C@H](CN)CC3)C(=O)Nc3ccc(-c4nnn[nH]4)cc3)c2)cn1 [Example 71, N-alpha-{[trans-4-(Aminomethyl)cyclohexyl]carbonyl}-3-[6-(dimethylamino)pyridin-3-yl]-N-[4-(1H-tetrazol-5-yl)phenyl]-L-phenylalaninamide hydrochloride]
